From US20210138025A1, “CATIONIC PEPTIDES WITH IMMUNOMODULATORY AND/OR ANTI-BIOFILM ACTIVITIES” (priority 2018, published 2021)
No end group written: not given here.

What was measured:
Histophilus somnus (Hs) [1] = format: cell-based
Description: (§1) The following strains were assessed vs. Staphylococcus epidermidis (Se), Pseudomonas aeruginosa (Pa), Streptococcus dysgalactiae (Sd), Pasteurella multocida (Pm), Streptococcus agalactiae (Sa), Streptococcus uberis (Su), Streptococcus suis (Ss), Mannheimia haemolytica (Mh), Bordatella bronchiseptica (Bb), Histophilus somnus (Hs), and Staphylococcus pseudintermedius (Sp) (Table 18) for Minimal Inhibitory Concentrations (MIC). Italics=excellent activity (less than or equal to 4 μg/ml).

[2] = system: Streptococcus uberis (Su); format: cell-based
Description: as §1

[3] = system: Bordatella bronchiseptica (Bb); format: cell-based
Description: as §1

[4] = system: Streptococcus dysgalactiae (Sd); format: cell-based
Description: as §1

[5] = system: Pasteurella multocida (Pm); format: cell-based
Description: as §1

[6] = system: Staphylococcus pseudintermedius (Sp); format: cell-based
Description: as §1

[7] = system: Streptococcus agalactiae (Sa); format: cell-based
Description: as §1

[8] = system: Staphylococcus epidermidis (Se); format: cell-based
Description: as §1

[9] = system: Pseudomonas aeruginosa (Pa); format: cell-based
Description: as §1

[10] = system: Mannheimia haemolytica (Mh); format: cell-based
Description: as §1

Streptococcus suis (Ss) [11] = format: cell-based
Description: as §1

[12] = system: planktonic methicillin resistant S. aureus; test: microbe, parasite or virus in culture; format: cell-based, Staphylococcus aureus; settings: planktonic methicillin resistant
Histophilus somnus (Hs) [13] = format: cell-based; remark: listed apart in the source
Description: (§2) The same strains as in Table 18 were assessed for Minimal Biofilm Inhibitory Concentrations (MBIC) (Table 19). Italics=excellent activity (less than or equal to 4 μg/ml). ND=Not determined. Peptides 3013, 3015 and 3016 inhibited biofilm growth in the largest number of bacterial strains (5, 5 and 6 out of 13 strains, respectively).

[14] = system: Streptococcus uberis (Su); format: cell-based; remark: listed apart in the source
Description: as §2

[15] = system: Bordatella bronchiseptica (Bb); format: cell-based; remark: listed apart in the source
Description: as §2

[16] = system: Streptococcus dysgalactiae (Sd); format: cell-based; remark: listed apart in the source
Description: as §2

[17] = system: Pasteurella multocida (Pm); format: cell-based; remark: listed apart in the source
Description: as §2

[18] = system: Staphylococcus pseudintermedius (Sp); format: cell-based; remark: listed apart in the source
Description: as §2

[19] = system: Streptococcus agalactiae (Sa); format: cell-based; remark: listed apart in the source
Description: as §2

[20] = system: Staphylococcus epidermidis (Se); format: cell-based; remark: listed apart in the source
Description: as §2

[21] = system: Pseudomonas aeruginosa (Pa); format: cell-based; remark: listed apart in the source
Description: as §2

[22] = system: Mannheimia haemolytica (Mh); format: cell-based; remark: listed apart in the source
Description: as §2

Streptococcus suis (Ss) [23] = format: cell-based; remark: listed apart in the source
Description: as §2

E. coli (Ec) [24] = format: cell-based; settings: Ec
PBMCs = test: Cytotoxicity towards PBMCs, lactate dehydrogenase (LDH) release assay (Tables 6, 7); settings: SPOT synthesized peptide ~25 μM, PBMCs from 3 human donors; Table 6
S. aureus (Sau) [25] = format: cell-based; settings: Sau
E. coli (Ec) [26] = format: cell-based; settings: Ec; remark: listed apart in the source
Description: as §2
(§3) In addition, several peptides expressed preferential activity vs. biofilms (MBIC) cf. planktonic cells (MIC) (Table 20).

S. aureus (Sau) [27] = format: cell-based; settings: Sau; remark: listed apart in the source
Description: as §2, §3

Row | Substance | MIC Hs (Histophilus somnus (Hs) [1]) | MIC Su [2] | MIC Bb [3] | MIC Sd [4] | MIC Pm [5] | MIC Sp [6] | MIC Sa [7] | MIC Se [8] | MIC Pa [9] | MIC Mh [10] | MIC Ss (Streptococcus suis (Ss) [11]) | MIC (μM) MHB [12] | MIC (μM) TSB with 1% Glucose [12] | MBIC (Histophilus somnus (Hs) [13]) | MBIC [14] | MBIC [15] | MBIC [16] | MBIC [17] | MBIC [18] | MBIC [19] | other results
1 | KIVIRIILQVIK-NH2 [Peptide 3015, KIVIRIILQVIK] | >64 µg/mL | 64 µg/mL | 64 µg/mL | 32 µg/mL | 64 µg/mL | 16 µg/mL | >64 µg/mL | >64 µg/mL | 64 µg/mL | >64 µg/mL | 64 µg/mL | 64 µM | >64 µM | 16 µg/mL | 4 µg/mL | >64 µg/mL | 4 µg/mL | 1 µg/mL | 8 µg/mL | >64 µg/mL | MBIC [20]: 2 µg/mL; MBIC [21]: 32 µg/mL; MBIC [22]: 16 µg/mL; MBIC (Streptococcus suis (Ss) [23]): 64 µg/mL; MIC E. coli (E. coli (Ec) [24]): >64 µg/mL; MIC Ec (E. coli (Ec) [24]): >64 µg/mL; % Toxicity (LDH Release) (PBMCs): −3.8%; MIC S. aureus (S. aureus (Sau) [25]): >64 µg/mL; MIC Sau (S. aureus (Sau) [25]): >64 µg/mL; MBIC (E. coli (Ec) [26]): 64 µg/mL; MBIC E. coli (E. coli (Ec) [26]): 64 µg/mL; MBIC (S. aureus (Sau) [27]): 64 µg/mL; MBIC S. aureus (S. aureus (Sau) [27]): 64 µg/mL
2 | LWQLWLKLKLKG-NH2 [Peptide 3013, LWQLWLKLKLKG] | 2 µg/mL | 4 µg/mL | 16 µg/mL | 2 µg/mL | 32 µg/mL | <1 µg/mL | 2 µg/mL | 2 µg/mL | >64 µg/mL | >64 µg/mL | 64 µg/mL | 32 µM | >64 µM | 4 µg/mL | 8 µg/mL | >64 µg/mL | 2 µg/mL | 2 µg/mL | 1 µg/mL | 32 µg/mL | MBIC [20]: >64 µg/mL; MBIC [21]: >64 µg/mL; MBIC [22]: >64 µg/mL; MBIC (Streptococcus suis (Ss) [23]): 16 µg/mL; MIC E. coli (E. coli (Ec) [24]): >64 µg/mL; MIC Ec (E. coli (Ec) [24]): >64 µg/mL; % Toxicity (LDH Release) (PBMCs): 14.1%; MIC S. aureus (S. aureus (Sau) [25]): >64 µg/mL; MIC Sau (S. aureus (Sau) [25]): >64 µg/mL; MBIC (E. coli (Ec) [26]): >64 µg/mL; MBIC E. coli (E. coli (Ec) [26]): >64 µg/mL; MBIC (S. aureus (Sau) [27]): 32 µg/mL; MBIC S. aureus (S. aureus (Sau) [27]): 32 µg/mL
3 | QLARLARVVWGL-NH2 [Peptide 3010, QLARLARVVWGL] | 64 µg/mL | 64 µg/mL | >64 µg/mL | 32 µg/mL | >64 µg/mL | 64 µg/mL | >64 µg/mL | >64 µg/mL | >64 µg/mL | >64 µg/mL | >64 µg/mL | >64 µM | >64 µM | 64 µg/mL | 32 µg/mL | >64 µg/mL | 16 µg/mL | 4 µg/mL | 64 µg/mL | >64 µg/mL | MBIC [20]: >64 µg/mL; MBIC [21]: >64 µg/mL; MBIC [22]: >64 µg/mL; MBIC (Streptococcus suis (Ss) [23]): >64 µg/mL; MIC E. coli (E. coli (Ec) [24]): >64 µg/mL; MIC Ec (E. coli (Ec) [24]): >64 µg/mL; % Toxicity (LDH Release) (PBMCs): −2.4%; MIC S. aureus (S. aureus (Sau) [25]): >64 µg/mL; MIC Sau (S. aureus (Sau) [25]): >64 µg/mL; MBIC (E. coli (Ec) [26]): 32 µg/mL; MBIC E. coli (E. coli (Ec) [26]): 32 µg/mL; MBIC (S. aureus (Sau) [27]): 64 µg/mL; MBIC S. aureus (S. aureus (Sau) [27]): 64 µg/mL
4 | AVKWLGWILAKK-NH2 [Peptide 3016, AVKWLGWILAKK] | 16 µg/mL | 16 µg/mL | 64 µg/mL | >64 µg/mL | >64 µg/mL | 8 µg/mL | 8 µg/mL | >64 µg/mL | >64 µg/mL | >64 µg/mL | 32 µg/mL | >64 µM | >64 µM | 4 µg/mL | 8 µg/mL | 64 µg/mL | >64 µg/mL | 8 µg/mL | 8 µg/mL | 64 µg/mL | MBIC [20]: 4 µg/mL; MBIC [21]: 32 µg/mL; MBIC [22]: >64 µg/mL; MBIC (Streptococcus suis (Ss) [23]): 32 µg/mL; MIC E. coli (E. coli (Ec) [24]): 64 µg/mL; MIC Ec (E. coli (Ec) [24]): 64 µg/mL; % Toxicity (LDH Release) (PBMCs): 0.8%; MIC S. aureus (S. aureus (Sau) [25]): >64 µg/mL; MIC Sau (S. aureus (Sau) [25]): >64 µg/mL; MBIC (E. coli (Ec) [26]): 32 µg/mL; MBIC E. coli (E. coli (Ec) [26]): 32 µg/mL; MBIC (S. aureus (Sau) [27]): 4 µg/mL; MBIC S. aureus (S. aureus (Sau) [27]): 4 µg/mL
5 | AVAKWALKLWKQ-NH2 [Peptide 3009, AVAKWALKLWKQ] | 64 µg/mL | 32 µg/mL | >64 µg/mL | 32 µg/mL | >64 µg/mL | 4 µg/mL | >64 µg/mL | >64 µg/mL | >64 µg/mL | >64 µg/mL | >64 µg/mL | >64 µM | >64 µM | 16 µg/mL | 16 µg/mL | 64 µg/mL | 16 µg/mL | 16 µg/mL | 8 µg/mL | >64 µg/mL | MBIC [20]: >64 µg/mL; MBIC [21]: >64 µg/mL; MBIC (Streptococcus suis (Ss) [23]): 16 µg/mL; MIC E. coli (E. coli (Ec) [24]): >64 µg/mL; MIC Ec (E. coli (Ec) [24]): >64 µg/mL; % Toxicity (LDH Release) (PBMCs): −3.2%; MIC S. aureus (S. aureus (Sau) [25]): >64 µg/mL; MIC Sau (S. aureus (Sau) [25]): >64 µg/mL; MBIC (E. coli (Ec) [26]): 32 µg/mL; MBIC E. coli (E. coli (Ec) [26]): 32 µg/mL; MBIC (S. aureus (Sau) [27]): 64 µg/mL; MBIC S. aureus (S. aureus (Sau) [27]): 64 µg/mL
6 | LAGLIVKWAGVR-NH2 [Peptide 3017, LAGLIVKWAGVR] | >64 µg/mL | 64 µg/mL | >64 µg/mL | >64 µg/mL | >64 µg/mL | >64 µg/mL | 32 µg/mL | >64 µg/mL | >64 µg/mL | >64 µg/mL | >64 µg/mL | >64 µM | >64 µM | 32 µg/mL | 16 µg/mL | >64 µg/mL | >64 µg/mL | >64 µg/mL | 64 µg/mL | >64 µg/mL | MBIC [20]: >64 µg/mL; MBIC [21]: >64 µg/mL; MBIC [22]: >64 µg/mL; MBIC (Streptococcus suis (Ss) [23]): >64 µg/mL; MIC E. coli (E. coli (Ec) [24]): >64 µg/mL; MIC Ec (E. coli (Ec) [24]): >64 µg/mL; % Toxicity (LDH Release) (PBMCs): 5.9%; MIC S. aureus (S. aureus (Sau) [25]): >64 µg/mL; MIC Sau (S. aureus (Sau) [25]): >64 µg/mL; MBIC (E. coli (Ec) [26]): >64 µg/mL; MBIC E. coli (E. coli (Ec) [26]): >64 µg/mL; MBIC (S. aureus (Sau) [27]): 4 µg/mL; MBIC S. aureus (S. aureus (Sau) [27]): 4 µg/mL
